Measured values reported in patent US20150141435A1, “2-PYRIDONE ANTIMICROBIAL COMPOSITIONS” (Emergent BioSolutions, priority 2010, published 2015).
≈ marks a conversion by molar mass, not a printed value. Like-named read-outs stand apart in the source and are kept apart here.

Columns and labels:
[1] = tested on: Enterococcus faecalis (5 strains); experiment: MIC range, broader panel incl. clinical isolates (Table 3); type: cell-based
E. faecalis ATCC 29212 = experiment: MIC, CLSI broth microdilution (Table 1); type: cell-based; settings: Enterococcus faecalis, ATCC29212; Gram positive; MHB, 37° C., 16-20 hours; read-out: MIC E. faecalis ATCC 29212
A. baumannii ATCC 19606 = experiment: MIC, CLSI broth microdilution (Table 2); type: cell-based; settings: Acinetobacter baumannii, ATCC19606; Gram negative; MHB, 37° C., 16-20 hours; read-out: MIC A. baumannii B. ATCC 19606
[2] = tested on: Acinetobacter baumannii (12 strains); experiment: MIC range, broader panel incl. clinical isolates (Table 4); type: cell-based; settings: Median of 12 strains
[3] = tested on: Group C Streptococcus (4 strains); experiment: MIC range, broader panel incl. clinical isolates (Table 3); type: cell-based
S. aureus ATCC 25923 = experiment: MIC, CLSI broth microdilution (Table 1); type: cell-based; settings: Staphylococcus aureus, ATCC25923; Gram positive; MHB, 37° C., 16-20 hours; read-out: MIC S. aureus ATCC 25923
[4] = tested on: Pseudomonas aeruginosa (12 strains); experiment: MIC range, broader panel incl. clinical isolates (Table 4); type: cell-based
[5] = tested on: Streptococcus pneumonia (5 strains); experiment: MIC range, broader panel incl. clinical isolates (Table 3); type: cell-based; settings: Streptococcus pneumoniae
[6] = tested on: Escherichia coli (6 strains); experiment: MIC range, broader panel incl. clinical isolates (Table 4); type: cell-based
[7] = tested on: Streptococcus pyogenes (4 strains); experiment: MIC range, broader panel incl. clinical isolates (Table 3); type: cell-based
E. faecium ATCC 19434 = experiment: MIC, CLSI broth microdilution (Table 1); type: cell-based; settings: Enterococcus faecium, ATCC19434; Gram positive; MHB, 37° C., 16-20 hours; read-out: MIC E. faecium ATCC 19434
[8] = tested on: S. maltophilia ATCC 17677; experiment: MIC, CLSI broth microdilution (Table 2); type: cell-based; settings: Stenotrophomonas maltophilia, ATCC17677; Gram negative; MHB, 37° C., 16-20 hours; read-out: MIC S. maltophilia ATCC 17677
[9] = tested on: S. aureus ATCC 43300 (MRSA, FQ-S); experiment: MIC, CLSI broth microdilution (Table 1); type: cell-based; settings: Staphylococcus aureus; Gram positive; MHB, 37° C., 16-20 hours; read-out: MIC S. aureus ATCC 43300 (MRSA, FQ-S)
[10] = tested on: Klebsiella pneumonia (4 strains); experiment: MIC range, broader panel incl. clinical isolates (Table 4); type: cell-based; settings: Klebsiella pneumoniae
S. pneumonia ATCC 49619 = experiment: MIC, CLSI broth microdilution (Table 1); type: cell-based; settings: Streptococcus pneumoniae, ATCC49619; Gram positive; MHB, 37° C., 16-20 hours; read-out: MIC S. pneumonia ATCC 49619
H. influenzae ATCC 49247 = experiment: MIC, CLSI broth microdilution (Table 2); type: cell-based; settings: Haemophilus influenzae, ATCC49247; Gram negative; MHB, 37° C., 16-20 hours; read-out: MIC H. influenzae ATCC 49247
K. pneumoniae ATCC 33495 = experiment: MIC, CLSI broth microdilution (Table 2); type: cell-based; settings: Klebsiella pneumoniae, ATCC33495; Gram negative; MHB, 37° C., 16-20 hours; read-out: MIC K. pneumoniae ATCC 33495
[11] = tested on: Haemophilus influenza (5 strains); experiment: MIC range, broader panel incl. clinical isolates (Table 4); type: cell-based, Haemophilus influenzae
[12] = tested on: Enterococcus faecium (3 strains); experiment: MIC range, broader panel incl. clinical isolates (Table 3); type: cell-based
[13] = tested on: S. aureus BAA-1720 (MRSA, FQ-R); experiment: MIC, CLSI broth microdilution (Table 1); type: cell-based; settings: Staphylococcus aureus; Gram positive; MHB, 37° C., 16-20 hours; read-out: MIC S. aureus BAA-1720 (MRSA, FQ-R)
[14] = tested on: Staphylococcus aureus (16 strains); experiment: MIC range, broader panel incl. clinical isolates (Table 3); type: cell-based; settings: Staphylococcus aureus
[15] = tested on: Burkholderia cepacia (5 strains); experiment: MIC range, broader panel incl. clinical isolates (Table 4); type: cell-based; settings: Burkholderia cepacia

C[C@H]1COc2c(N3CCN(C)CC3)c(F)cc3c(=O)c(C(=O)O)cn1c23 [Levofloxacin] showed an MIC ([1]; High of 5 strains, read-out: MIC Range High, Enterococcus faecalis (5 strains)) of at least 16 µg/mL, an MIC ([1]; Low of 5 strains, read-out: MIC Range Low, Enterococcus faecalis (5 strains)) of 1 µg/mL (≈ 2.77 µM) and an MIC50 ([1]; Median of 5 strains) of 2 µg/mL (≈ 5.53 µM). For the same compound, the MIC (E. faecalis ATCC 29212) was 1 µg/mL (≈ 2.77 µM), the MIC (A. baumannii ATCC 19606) was 0.25 µg/mL (≈ 0.692 µM) and the MIC50 [2] was at least 16 µg/mL. For the same compound, the MIC ([3]; High of 4 strains, read-out: MIC Range High, Group C Streptococcus (4 strains)) was 1 µg/mL (≈ 2.77 µM), the MIC ([3]; Low of 4 strains, read-out: MIC Range Low, Group C Streptococcus (4 strains)) was 0.5 µg/mL (≈ 1.38 µM) and the MIC50 ([3]; Median of 4 strains) was 0.75 µg/mL (≈ 2.08 µM). The MIC (S. aureus ATCC 25923) was 0.25 µg/mL (≈ 0.692 µM), the MIC ([4]; High of 12 strains, read-out: MIC Range High, Pseudomonas aeruginosa (12 strains)) was at least 16 µg/mL and the MIC ([4]; Low of 12 strains, read-out: MIC Range Low, Pseudomonas aeruginosa (12 strains)) was 1 µg/mL (≈ 2.77 µM). It also gave an MIC50 ([4]; Median of 12 strains) of at least 16 µg/mL, an MIC ([5]; High of 5 strains, read-out: MIC Range High, Streptococcus pneumonia (5 strains)) of 2 µg/mL (≈ 5.53 µM) and an MIC ([5]; Low of 5 strains, read-out: MIC Range Low, Streptococcus pneumonia (5 strains)) of 0.5 µg/mL (≈ 1.38 µM). For the same compound, the MIC50 ([5]; Median of 5 strains) was 1 µg/mL (≈ 2.77 µM), the MIC ([6]; High of 6 strains, read-out: MIC Range High, Escherichia coli (6 strains)) was at least 16 µg/mL and the MIC ([6]; Low of 6 strains, read-out: MIC Range Low, Escherichia coli (6 strains)) was 0.015 µg/mL (≈ 0.0415 µM). It also gave an MIC50 ([6]; Median of 6 strains) of at least 16 µg/mL, an MIC ([7]; High of 4 strains, read-out: MIC Range High, Streptococcus pyogenes (4 strains)) of 2 µg/mL (≈ 5.53 µM) and an MIC ([7]; Low of 4 strains, read-out: MIC Range Low, Streptococcus pyogenes (4 strains)) of 0.5 µg/mL (≈ 1.38 µM). The MIC50 ([7]; Median of 4 strains) was 0.75 µg/mL (≈ 2.08 µM), the MIC (E. faecium ATCC 19434) was 8 µg/mL (≈ 22.1 µM) and the MIC [8] was 0.25 µg/mL (≈ 0.692 µM). The MIC [9] was 0.125 µg/mL (≈ 0.346 µM), the MIC ([10]; High of 4 strains, read-out: MIC Range High, Klebsiella pneumonia (4 strains)) was 2 µg/mL (≈ 5.53 µM) and the MIC ([10]; Low of 4 strains, read-out: MIC Range Low, Klebsiella pneumonia (4 strains)) was 0.03 µg/mL (≈ 0.083 µM). The MIC50 ([10]; Median of 4 strains) was 2 µg/mL (≈ 5.53 µM), the MIC (S. pneumonia ATCC 49619) was 0.5 µg/mL (≈ 1.38 µM) and the MIC (H. influenzae ATCC 49247) was 0.016 µg/mL (≈ 0.0443 µM). It also gave an MIC (K. pneumoniae ATCC 33495) of 0.032 µg/mL (≈ 0.0886 µM), an MIC ([11]; High of 5 strains, read-out: MIC Range High, Haemophilus influenza (5 strains)) of 0.015 µg/mL (≈ 0.0415 µM) and an MIC ([11]; Low of 5 strains, read-out: MIC Range Low, Haemophilus influenza (5 strains)) of 0.008 µg/mL (≈ 0.0221 µM). For the same compound, the MIC50 ([11]; Median of 5 strains) was 0.015 µg/mL (≈ 0.0415 µM), the MIC ([12]; High of 3 strains, read-out: MIC Range High, Enterococcus faecium (3 strains)) was at least 16 µg/mL and the MIC ([12]; Low of 3 strains, read-out: MIC Range Low, Enterococcus faecium (3 strains)) was 2 µg/mL (≈ 5.53 µM). For the same compound, the MIC50 ([12]; Median of 3 strains) was at least 16 µg/mL, the MIC [13] was over 8 µg/mL and the MIC ([14]; High of 16 strains, read-out: MIC Range High, Staphylococcus aureus (16 strains)) was at least 16 µg/mL. For the same compound, the MIC ([14]; Low of 16 strains, read-out: MIC Range Low, Staphylococcus aureus (16 strains)) was 0.12 µg/mL (≈ 0.332 µM), the MIC50 ([14]; Median of 16 strains) was 0.25 µg/mL (≈ 0.692 µM) and the MIC ([15]; High of 5 strains, read-out: MIC Range High, Burkholderia cepacia (5 strains)) was 2 µg/mL (≈ 5.53 µM). For the same compound, the MIC ([15]; Low of 5 strains, read-out: MIC Range Low, Burkholderia cepacia (5 strains)) was 1 µg/mL (≈ 2.77 µM) and the MIC50 ([15]; Median of 5 strains) was 2 µg/mL (≈ 5.53 µM).
